Measurements published in ChEMBL document CHEMBL1157741, “Synthesis and antituberculosis activity of novel mefloquine-isoxazole carboxylic esters as prodrugs” (Bioorg Med Chem Lett, 2010).
pIC50: −log10 of the molar value. ≈ marks a conversion by molar mass, not a printed value.

Columns and labels:
[1] = Selectivity index, ratio of IC50 for african green monkey Vero cells to MIC for Mycobacterium tuberculosis H37Rv by low oxygen recovery assay; assay type: functional
[2] = Selectivity index, ratio of IC50 for african green monkey Vero cells to MIC for Mycobacterium tuberculosis H37Rv by microplate alamar blue assay; assay type: functional
[3] = tested on: Mycobacterium tuberculosis; test: Antitubercular activity against Mycobacterium tuberculosis H37Rv after 72 hrs by microplate alamar blue assay; assay type: functional
Vero = test: Cytotoxicity against african green monkey Vero cells after 72 hrs; assay type: cell-based; conditions: Chlorocebus sabaeus
[4] = tested on: Mycobacterium tuberculosis; test: Antitubercular activity against Mycobacterium tuberculosis H37Rv after 28 hrs by low oxygen recovery assay; assay type: functional
[5] = tested on: Mycobacterium tuberculosis; test: Antitubercular activity against Mycobacterium tuberculosis H37Rv at pH 6.8 by microplate alamar blue assay; assay type: functional
Candida albicans = test: Antimicrobial activity against Candida albicans; assay type: functional
Bacillus anthracis = test: Antimicrobial activity against Bacillus anthracis; assay type: functional
[6] = tested on: Mycobacterium tuberculosis; test: Antitubercular activity against Mycobacterium tuberculosis Erdman infected in mouse J774A.1 cells; assay type: functional
[7] = tested on: Mycobacterium tuberculosis; test: Antimicrobial activity against Mycobacterium tuberculosis Erdman; assay type: functional
[8] = Inhibition of CYP; assay type: ADME
[9] = tested on: Mycobacterium tuberculosis; test: Antitubercular activity against Mycobacterium tuberculosis H37Rv at pH 6 by microplate alamar blue assay; assay type: functional
Staphylococcus aureus = test: Antimicrobial activity against Staphylococcus aureus; assay type: functional
[10] = tested on: Mycolicibacterium smegmatis; test: Antimicrobial activity against Mycobacterium smegmatis; assay type: functional
Escherichia coli = test: Antimicrobial activity against Escherichia coli; assay type: functional
[11] = Toxicity in po dosed BALB/c mouse assessed as maximum tolerated dose treated for 5 days; assay type: organism-based; conditions: in vivo
[12] = tested on: Mycobacterium tuberculosis; test: Antitubercular activity against Mycobacterium tuberculosis H37Rv at pH 6.8 by microplate alamar blue assay relative to control; assay type: functional

With CCOC(=O)c1cc(COc2ccc3ncccc3c2)on1 the “Selectivity Index” value [1] was greater than 10, the “Selectivity Index” value [2] was greater than 17.3 and the MIC [3] was 7.4 µM (≈ 2.21 µg/mL). For the same compound, the pIC50 (Vero) was less than 3.89 and the MIC [4] was 12.8 µM (≈ 3.82 µg/mL).
In the case of CCOC(=O)c1cc(COc2cc(C(F)(F)F)nc3c(C(F)(F)F)cccc23)on1, the “Selectivity Index” value [1] was greater than 10.5, the MIC [5] was 0.9 µM (≈ 0.391 µg/mL) and the MIC (Candida albicans) was greater than 128 µM. For the same compound, the “Selectivity Index” value [2] was greater than 142.2, the MIC (Bacillus anthracis) was greater than 128 µM and the EC90 [6] was 4.1 µM. The EC99 [6] was 18.3 µM, the MIC [3] was 0.9 µM (≈ 0.391 µg/mL) and the MIC [7] was 1.74 µM (≈ 0.756 µg/mL). For the same compound, the “inhibition (INH)” value [8] was “Not Active”, the pIC50 (Vero) was less than 3.89 and the MIC [4] was 12.1 µM (≈ 5.25 µg/mL). It also gave an MIC [9] of 0.1 µM (≈ 0.0434 µg/mL), an MIC (Staphylococcus aureus) greater than 128 µM and an MIC [10] greater than 128 µM. It also gave an MIC (Escherichia coli) greater than 128 µM.
In the case of CCOC(=O)c1cc(COc2ccnc3ccccc23)on1, the “Selectivity Index” value [2] was greater than 5.1, the MIC [3] was 25.1 µM (≈ 7.49 µg/mL) and the pIC50 (Vero) was less than 3.89. For the same compound, the MIC [4] was 11.3 µM (≈ 3.37 µg/mL).
In the case of NNC(=O)c1cc(COc2cc(C(F)(F)F)nc3c(C(F)(F)F)cccc23)on1, the MIC [3] was greater than 128 µM, the pIC50 (Vero) was less than 3.89 and the MIC [4] was greater than 128 µM.
CC(=O)OCc1cc(COc2cc(C(F)(F)F)nc3c(C(F)(F)F)cccc23)on1 showed an MIC [3] greater than 128 µM, a pIC50 (Vero) of less than 3.89 and an MIC [4] greater than 128 µM.
Work on CCc1noc(-c2cc(COc3cc(C(F)(F)F)nc4c(C(F)(F)F)cccc34)on2)n1 yielded an MIC [3] greater than 128 µM, a pIC50 (Vero) of less than 3.89 and an MIC [4] greater than 128 µM.
In the case of CCOC(=O)c1cc(COc2cc(C(F)(F)F)c3nc(C(F)(F)F)cc(OCc4cc(C(=O)OCC)no4)c3c2)on1, the “Selectivity Index” value [1] was greater than 8.2, the “Selectivity Index” value [2] was greater than 7.3 and the MIC [3] was 17.6 µM (≈ 10.6 µg/mL). The pIC50 (Vero) was less than 3.89 and the MIC [4] was 15.6 µM (≈ 9.41 µg/mL).
In the case of CCOC(=O)c1cc(COc2cccc3cccnc23)on1, the “Selectivity Index” value [1] was greater than 1, the “Selectivity Index” value [2] was greater than 3.2 and the MIC [3] was 39.8 µM (≈ 11.9 µg/mL). It also gave a pIC50 (Vero) of less than 3.89 and an MIC [4] of 125 µM (≈ 37.3 µg/mL).
O=C(c1cc(COc2cc(C(F)(F)F)nc3c(C(F)(F)F)cccc23)on1)N1CCCCO1 gave an MIC [3] greater than 128 µM, a pIC50 (Vero) of less than 3.89 and an MIC [4] greater than 128 µM.
With CCCCCCOC(=O)c1cc(COc2cc(C(F)(F)F)nc3c(C(F)(F)F)cccc23)on1 the “Selectivity Index” value [1] was greater than 4.8, the “Selectivity Index” value [2] was greater than 8.4 and the MIC [3] was 15.3 µM (≈ 7.5 µg/mL). For the same compound, the pIC50 (Vero) was less than 3.89 and the MIC [4] was 26.7 µM (≈ 13.1 µg/mL).
With O=C(OCc1ccccc1)c1cc(COc2cc(C(F)(F)F)nc3c(C(F)(F)F)cccc23)on1 the “Selectivity Index” value [1] was greater than 2.5, the “Selectivity Index” value [2] was greater than 4.8 and the MIC [3] was 26.5 µM (≈ 13.2 µg/mL). For the same compound, the pIC50 (Vero) was less than 3.89 and the MIC [4] was 50.7 µM (≈ 25.2 µg/mL).
With O=C(OCCC(F)(F)F)c1cc(COc2cc(C(F)(F)F)nc3c(C(F)(F)F)cccc23)on1 the “Selectivity Index” value [1] was greater than 4.3, the “Selectivity Index” value [2] was greater than 5.1 and the MIC [3] was 25 µM (≈ 12.6 µg/mL). For the same compound, the pIC50 (Vero) was less than 3.89 and the MIC [4] was 29.9 µM (≈ 15 µg/mL).
In the case of CCCCOC(=O)c1cc(COc2cc(C(F)(F)F)nc3c(C(F)(F)F)cccc23)on1, the “Selectivity Index” value [1] was greater than 10.6, the “Selectivity Index” value [2] was greater than 109.1 and the MIC [3] was 0.9 µM (≈ 0.416 µg/mL). It also gave a pIC50 (Vero) of 3.98 and an MIC [4] of 9.9 µM (≈ 4.58 µg/mL).
With CCCOC(=O)c1cc(COc2cc(C(F)(F)F)nc3c(C(F)(F)F)cccc23)on1 the “Selectivity Index” value [1] was greater than 4.9, the “Selectivity Index” value [2] was greater than 71.2 and the MIC [3] was 1.8 µM (≈ 0.807 µg/mL). It also gave a pIC50 (Vero) of less than 3.89 and an MIC [4] of 26.1 µM (≈ 11.7 µg/mL).
With CCOC(=O)c1cc(COc2ccc3ccc(C(F)(F)F)nc3c2)on1 the “Selectivity Index” value [1] was greater than 5.9, the “Selectivity Index” value [2] was greater than 25.6 and the MIC [3] was 3.6 µM (≈ 1.32 µg/mL). The pIC50 (Vero) was less than 3.89 and the MIC [4] was 21.6 µM (≈ 7.91 µg/mL).
For CCOC(=O)c1cc(COc2ccc3cccnc3c2)on1, the “Selectivity Index” value [1] was greater than 2.7, the “Selectivity Index” value [2] was greater than 9.9 and the MIC [3] was 10.8 µM (≈ 3.22 µg/mL). It also gave a pIC50 (Vero) of 3.97 and an MIC [4] of 40.3 µM (≈ 12 µg/mL).
For CCOC(=O)c1cc(COc2cccc3ncccc23)on1, the “Selectivity Index” value [1] was greater than 4.1, the “Selectivity Index” value [2] was greater than 3.6 and the MIC [3] was 35.1 µM (≈ 10.5 µg/mL). It also gave a pIC50 (Vero) of less than 3.89 and an MIC [4] of 31.1 µM (≈ 9.28 µg/mL).
In the case of CCOC(=O)c1cc(COc2ccc3cc[nH]c3c2)on1, the “Selectivity Index” value [1] was greater than 2.9, the “Selectivity Index” value [2] was greater than 14.9 and the MIC [3] was 8.6 µM (≈ 2.46 µg/mL). For the same compound, the pIC50 (Vero) was less than 3.89 and the MIC [4] was 42.9 µM (≈ 12.3 µg/mL).
In the case of NC(=O)c1cc(COc2cc(C(F)(F)F)nc3c(C(F)(F)F)cccc23)on1, the MIC [3] was greater than 128 µM, the pIC50 (Vero) was less than 3.89 and the MIC [4] was greater than 128 µM.
In the case of CCN(CC)C(=O)c1cc(COc2cc(C(F)(F)F)nc3c(C(F)(F)F)cccc23)on1, the MIC [3] was greater than 128 µM, the pIC50 (Vero) was 4.33 and the MIC [4] was greater than 128 µM.
Work on O=C(O)c1cc(COc2cc(C(F)(F)F)nc3c(C(F)(F)F)cccc23)on1 yielded an MIC [5] greater than 128 µM, an MIC (Candida albicans) greater than 128 µM and an MIC (Bacillus anthracis) of 32 µM (≈ 13 µg/mL). It also gave an MTD at 120 h [11] of 400 mg/kg, an MIC [7] greater than 128 µM and an Activity [12] of 89%. For the same compound, the MIC [9] was 7.7 µM (≈ 3.13 µg/mL), the MIC (Staphylococcus aureus) was 22 µM (≈ 8.94 µg/mL) and the MIC [10] was greater than 128 µM. For the same compound, the MIC (Escherichia coli) was greater than 128 µM.
OCc1cc(COc2cc(C(F)(F)F)nc3c(C(F)(F)F)cccc23)on1 gave an MIC [3] greater than 128 µM, a pIC50 (Vero) of less than 3.89 and an MIC [4] greater than 128 µM.
In the case of CCOC(=O)c1cc(COc2ccc3ccccc3n2)on1, the “Selectivity Index” value [1] was greater than 2, the “Selectivity Index” value [2] was greater than 1.2 and the MIC [3] was 103 µM (≈ 30.8 µg/mL). The pIC50 (Vero) was less than 3.89 and the MIC [4] was 64 µM (≈ 19.1 µg/mL).
With CCOC(=O)c1cc(COc2ccc([N+](=O)[O-])c(C(F)(F)F)c2)on1 the “Selectivity Index” value [1] was greater than 2.1, the “Selectivity Index” value [2] was greater than 36.6 and the MIC [3] was 3.5 µM (≈ 1.26 µg/mL). For the same compound, the pIC50 (Vero) was less than 3.89 and the MIC [4] was 62.2 µM (≈ 22.4 µg/mL).
NNC(=O)c1ccncc1 [ISONIAZID] gave an MIC [5] of 0.1 µM (≈ 0.0137 µg/mL) and an MIC [9] of 0.1 µM (≈ 0.0137 µg/mL).
For OC(c1cc(C(F)(F)F)nc2c(C(F)(F)F)cccc12)C1CCCCN1 (configuration not stated) [MEFLOQUINE], the “Selectivity Index” value [1] was 1.6, the “Selectivity Index” value [2] was 0.9 and the MIC [3] was 13 µM (≈ 4.92 µg/mL). The MIC [4] was 7 µM (≈ 2.65 µg/mL).
Compound NC(=O)c1cnccn1 [PYRAZINAMIDE] has an MIC [5] greater than 4000 µM and an MIC [9] of 829 µM (≈ 102 µg/mL).
Compound CO[C@H]1/C=C/O[C@@]2(C)Oc3c(C)c(O)c4c(O)c(c(/C=N/N5CCN(C)CC5)c(O)c4c3C2=O)NC(=O)/C(C)=C\C=C\[C@H](C)[C@H](O)[C@@H](C)[C@@H](O)[C@@H](C)[C@H](OC(C)=O)[C@@H]1C [RIFAMPIN] has an MIC [5] of 0.1 µM (≈ 0.0823 µg/mL), an MIC [3] of 0.1 µM (≈ 0.0823 µg/mL) and an MIC [4] of 2 µM (≈ 1.65 µg/mL).
